Test results from paper PMC12067350, “Discovery of Thieno[3,2‑b]pyridine-5-carboxamide and 2,3-Difluorobenzamide Negative Allosteric Modulators of Metabotropic Glutamate Receptor Subtype 5” (ACS Medicinal Chemistry Letters, 2025).
pIC50: −log10 of the molar value.

Tests used:
Format in all cases: in vitro ADME
[1] = Binding in brain homogenate from rat (equilibrium dialysis); conditions: fraction unbound, rat brain homogenates
Protocol: (§1) Binding in plasma from rat and human.
(§2) Determination of compounds’ fraction unbound (f u) in plasma from rat and human was conducted in vitro via equilibrium dialysis using HTDialysis membrane plates. Dialysis membranes (four paired strips per HTD assay) were hydrated as described by the manufacturer and inserted into the HTD plate, which was assembled and prepared for sample addition by the dispensing of blank buffer (DPBS, 100 µL/well) into the ‘top half’ of each membrane-split well. Each compound was diluted into plasma from each species (5 µM final concentration), which was aliquoted in triplicate to the ‘bottom half’ of the prepared HTD plate wells. […] Supernatant (60 µL) from each well of the daughter plates was then transferred to the corresponding wells of new daughter plates (96-shallow-well, V bottom) containing water (Milli-Q, 60 µL/well), and the plates were sealed in preparation for LC-MS/MS analysis (see below). fu was calculated as (analyte to IS MS peak area ratio from Trans-buffer side) / (analyte to IS MS peak area ratio from Cis-plasma side). Mean values for each species were calculated from 3 replicates. […]
The diluted fraction unbound (f u2) in brain was calculated as (analyte to IS MS peak area ratio from Trans-buffer side) / (analyte to IS MS peak area ratio from Cis-brain homogenate side). […]
(§3) Mean values for each species were calculated from 3 replicates.

[2] = Binding in plasma from rat (equilibrium dialysis); conditions: fraction unbound
Protocol: as §1
as §2, with “wells. The HTD plate was sealed and incubated for 6 hours at 37 °C.” for “wells.”
as §3

[3] = Binding in plasma from human (equilibrium dialysis); conditions: fraction unbound
Protocol: as §1
Determination of compounds’ fraction unbound (f u) in plasma from rat and human was conducted in vitro via equilibrium dialysis using HTDialysis membrane plates. Dialysis membranes (four paired strips per HTD assay) were hydrated as described by the manufacturer and inserted into the HTD plate, which was assembled and prepared for sample addition by the dispensing of blank buffer (DPBS, 100 µL/well) into the ‘top half’ of each membrane-split well. Each compound was diluted into plasma from each species (5 µM final concentration), which was aliquoted in triplicate to the ‘bottom half’ of the prepared HTD plate wells. The HTD plate was sealed and incubated for 6 hours at 37 °C. Following incubation, each well (both top and bottom halves) were transferred (20 µL) to the corresponding wells of a 96-shallow-well (V-bottom) plate. The daughter plates were then matrix-matched (buffer side wells received equal volume of plasma, and plasma side wells received equal volume of buffer), and extraction solution (120 µL; acetonitrile containing 50 nM carbamazepine as IS) was added to all wells of both daughter plates to precipitate protein and extract test article. The plates were then sealed and centrifuged (3500 rcf) for 10 minutes at ambient temperature. Supernatant (60 µL) from each well of the daughter plates was then transferred to the corresponding wells of new daughter plates (96-shallow-well, V bottom) containing water (Milli-Q, 60 µL/well), and the plates were sealed in preparation for LC-MS/MS analysis (see below). fu was calculated as (analyte to IS MS peak area ratio from Trans-buffer side) / (analyte to IS MS peak area ratio from Cis-plasma side). Mean values for each species were calculated from 3 replicates. […]
as §3

[4] = Intrinsic clearance in human liver microsomes; conditions: for CLint scaled at 0.75 h, 1 µM: pH 7.4, human liver microsomes; for CLhep, human: predicted hepatic clearance from human microsomes
CYP2D6 = target: T1, CYP2D6 (Homo sapiens, UniProt P10635); assay: Cytochrome P450 inhibition using human liver microsomes, CYP2D6; conditions: read-out: CYP 450 IC50, 2D6
T1 construct: from tissue; host or cells: human liver microsomes
T1 sequence (P10635 whole entry): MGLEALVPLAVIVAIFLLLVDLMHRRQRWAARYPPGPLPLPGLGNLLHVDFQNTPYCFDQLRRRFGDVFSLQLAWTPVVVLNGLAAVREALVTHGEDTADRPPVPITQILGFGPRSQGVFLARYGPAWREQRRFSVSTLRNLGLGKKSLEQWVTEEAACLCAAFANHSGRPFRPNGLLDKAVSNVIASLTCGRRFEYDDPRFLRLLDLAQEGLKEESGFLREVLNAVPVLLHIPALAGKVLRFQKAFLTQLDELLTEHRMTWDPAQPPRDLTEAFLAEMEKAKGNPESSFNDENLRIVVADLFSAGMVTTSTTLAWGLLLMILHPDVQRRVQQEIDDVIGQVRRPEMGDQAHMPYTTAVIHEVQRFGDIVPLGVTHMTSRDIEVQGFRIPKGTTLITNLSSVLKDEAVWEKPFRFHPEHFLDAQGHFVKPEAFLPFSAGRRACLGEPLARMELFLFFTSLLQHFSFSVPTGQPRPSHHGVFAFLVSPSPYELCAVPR
Protocol: Cytochrome P450 inhibition using Liver Microsomes.
The ability of compounds to inhibit cytochrome P450s (CYPs) was tested using human liver microsomes and a cocktail of substrates specific for CYP1A2, 2C9, 2D6 and 3A4. Compounds were incubated at 37C in presence of human liver microsomes (0.1 mg/ml) at 30, 10, 3, 1, 0.3 and 0.1 µM. A cocktail of substrate was also added for each CYP tested: phenacetin (10 µM, CYP1A2), diclofenac (5 µM, CYP2C9), dextromethorphan (5 µM, CYP2D6) and midazolam (2 µM, CYP3A4). HLM were also incubated with the control inhibitor miconazole at 3, 1, 0.3, 0.1, 0.03 and 0.01 µM. […]
The concentrations of CYP-specific metabolites generated at the end of the reaction were quantified by mass spectrometry using standard curves for each metabolite: acetaminophen (CYP1A2), 4-hydroxydiclofenac (CYP2C9), dextrophan (CYP2D6) and 1-hydroxymidazolam (CYP3A4). A concentration response curve for each metabolite was generated and IC50s were calculated using Prism. The LC-MS/MS transitions for metabolite quantifications are as follows. […]
Prepared samples were injected (10 µL each) onto an AB Sciex Triple Quad 4500 mass spectrometer system with an Agilent 1260 Infinity II pump and autosampler. […] Quantitation of compounds was performed via AB Sciex Multiquant software using the raw analyte:IS peak area ratios. […]

Row | SMILES | Rat f u,brain [1] | rat f u,plasma [2] | human f u,plasma [3] | CLint scaled at 0.75 h, 1 µM [4] | CLhep, human [4] | pIC50 (CYP2D6)
1 | Cc1csc(NC(=O)c2cc(O[C@@H]3CCOC3)c3sccc3n2)n1 [19aA] | 0.009 | 0.027 | 0.020 | 8.4 L/h/kg | 1.1 L/h/kg | < 4.52
2 | Cc1csc(NC(=O)c2cc(O[C@@H]3CCOC3)cc(F)c2F)n1 [27cA] | 0.051 | 0.040 | 0.069 | 14.5 L/h/kg | 1.16 L/h/kg | < 4.52
